Assay results published in US7759345B2, “Antitumoral derivatives of ET-743” (priority 2001, dated 2010).

Tests used:
K-562 = experiment: Inhibition of cells growth by colorimetric assay (SRB), K-562; format: cell-based; conditions: SRB, 48 hours exposure
In short: (§1)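 Compound in DMSO/EtOH/PBS vehicle was applied at 10 to 10^−8 μg/ml to attached cells (5×10^3/well, 18 h) for 48 h. Cells were then fixed with cold TCA and stained with 0.4% SRB in 1% acetic acid.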

A-549 = experiment: Inhibition of cells growth by colorimetric assay (SRB), A-549; format: cell-based; conditions: SRB, 48 hours exposure
In short: as §1

SK-MEL-28 = experiment: Inhibition of cells growth by colorimetric assay (SRB), SK-MEL-28; format: cell-based; conditions: SRB, 48 hours exposure
In short: as §1

HT-29 = experiment: Inhibition of cells growth by colorimetric assay (SRB), HT-29; format: cell-based; conditions: SRB, 48 hours exposure
In short: as §1

LoVo = experiment: Inhibition of cells growth by colorimetric assay (SRB), LoVo; format: cell-based; conditions: SRB, 48 hours exposure
In short: as §1

LoVo-Dox = experiment: Inhibition of cells growth by colorimetric assay (SRB), LoVo-Dox; format: cell-based; conditions: SRB, 48 hours exposure
In short: as §1

DU-145 = experiment: Inhibition of cells growth by colorimetric assay (SRB), DU-145; format: cell-based; conditions: SRB, 48 hours exposure
In short: as §1

LNCaP = experiment: Inhibition of cells growth by colorimetric assay (SRB), LNCaP; format: cell-based; conditions: SRB, 48 hours exposure
In short: as §1

SK-BR-3 = experiment: Inhibition of cells growth by colorimetric assay (SRB), SK-BR-3; format: cell-based; conditions: SRB, 48 hours exposure
In short: as §1

IGROV-1 = experiment: Inhibition of cells growth by colorimetric assay (SRB), IGROV-1; format: cell-based; conditions: SRB, 48 hours exposure
In short: as §1

IGROV-ET = experiment: Inhibition of cells growth by colorimetric assay (SRB), IGROV-ET; format: cell-based; conditions: SRB, 48 hours exposure
In short: as §1

SK-OV-3 = experiment: Inhibition of cells growth by colorimetric assay (SRB), SK-OV-3; format: cell-based; conditions: SRB, 48 hours exposure
In short: as §1

PANC-1 = experiment: Inhibition of cells growth by colorimetric assay (SRB), PANC-1; format: cell-based; conditions: SRB, 48 hours exposure
In short: as §1

HMEC1 = experiment: Inhibition of cells growth by colorimetric assay (SRB), HMEC1; format: cell-based; conditions: SRB, 48 hours exposure
In short: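 5×10^3 cells/well; 18 h attach; compound 10–10^−8 μg/ml in DMSO/EtOH/PBS (0.5:0.5:99), 48 h, 37 °C, 5% CO2; cold 50% TCA fix 60 min 4 °C; 0.4% SRB 10 min RT; Tris solubilization; OD 490 nm; triplicates.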

Source text for Heart: (§2) Toxicity was asssessed by the methods reported in Toxicology in Vitro, 15 (2001) 571-577, J. Luber Narod et al.: “Evaluation of the use of in vitro methodolodies as tools for screening new compounds for potential in vivo toxicity”.
Source text for Kidney: as §2
Source text for Liver: as §2
Source text for Myelo: as §2
Source text for Skeletal: as §2

For COc1cc2c(cc1OC)[C@@]1(CS[C@@H]3c4c(OC(C)=O)c(C)c5c(c4[C@H](COC1=O)N1C3[C@H]3c4c(cc(C)c(OC)c4OC)C[C@@H]([C@@H]1O)N3C)OCO5)NCC2 (some centres unmarked) [Compound 87], the GI50 (K-562; Homo sapiens, K562, 48 h, K-562, read-out: K-562 GI50) was 0.871 nM, the LC50 (50% cell killing) (K-562; Homo sapiens, K562, 48 h, read-out: K-562 LC50, K-562) was 7.15 nM and the “K-562 TGI” value (K-562; K-562) was 2.96E-09. For the same molecule, the “TGI A-549” value (A-549; A-549) was 4.77E-08, the GI50 (A-549; Homo sapiens, A549, 48 h, A-549, read-out: GI50 A-549) was 23.8 nM and the LC50 (concentration for 50% cell killing) (A-549; Homo sapiens, A549, 48 h, read-out: A-549 LC50, A-549) was 95.8 nM. For the same molecule, the GI50 (SK-MEL-28; Homo sapiens, SK-MEL-28, 48 h, MEL-28, read-out: MEL-28 GI50) was 19.2 nM, the CC50 (SK-MEL-28; Homo sapiens, SK-MEL-28, 48 h, read-out: MEL-28 LC50, MEL-28) was 109 nM and the “MEL-28 TGI” value (SK-MEL-28; MEL-28) was 4.57E-08. For the same molecule, the “HT-29 TGI” value (HT-29; HT-29) was 1.12E-07, the GI50 (HT-29; Homo sapiens, HT-29, 48 h, HT-29, read-out: HT-29 GI50) was 24.4 nM and the LC50 (concentration for 50% cell killing) (HT-29; Homo sapiens, HT-29, 48 h, read-out: HT-29 LC50, HT-29) was 380 nM. For the same molecule, the GI50 (LoVo; Homo sapiens, LoVo, 48 h, LOVO, read-out: LOVO GI50) was 22.7 nM, the LC50 (concentration for 50% cell killing) (LoVo; Homo sapiens, LoVo, 48 h, read-out: LOVO LC50, LOVO) was 123 nM and the “LOVO TGI” value (LoVo; LOVO) was 5.27E-08. For the same molecule, the GI50 (LoVo-Dox; Homo sapiens, 48 h, LOVO-DOX, read-out: LOVO-DOX GI50) was 38.7 nM, the CC50 (LoVo-Dox; Homo sapiens, 48 h, read-out: LOVO-DOX LC50, LOVO-DOX) was 12700 nM and the “LOVO-DOX TGI” value (LoVo-Dox; LOVO-DOX) was 1.42E-07. The “DU-145 TGI” value (DU-145; DU-145) was 5.22E-08, the GI50 (DU-145; Homo sapiens, DU-145, 48 h, DU-145, read-out: DU-145 GI50) was 13.5 nM and the CC50 (DU-145; Homo sapiens, DU-145, 48 h, read-out: DU-145 LC50, DU-145) was 180 nM. For the same molecule, the GI50 (LNCaP; Homo sapiens, LNCaP, 48 h, read-out: LNCAP GI50, LNCAP) was 4.73 nM, the CC50 (LNCaP; Homo sapiens, LNCaP, 48 h, read-out: LNCAP LC50, LNCAP) was 40.5 nM and the “LNCAP TGI” value (LNCaP; LNCAP) was 1.12E-08. For the same molecule, the GI50 (SK-BR-3; Homo sapiens, SK-BR-3, 48 h, SK-BR3, read-out: SK-BR3 GI50) was 16.5 nM, the CC50 (SK-BR-3; Homo sapiens, SK-BR-3, 48 h, read-out: SK-BR3 LC50, SK-BR3) was 101 nM and the “SK-BR3 TGI” value (SK-BR-3; SK-BR3) was 4.08E-08. For the same molecule, the GI50 (IGROV-1; Homo sapiens, IGROV-1, 48 h, IGROV, read-out: IGROV GI50) was 4.8 nM, the CC50 (IGROV-1; Homo sapiens, IGROV-1, 48 h, read-out: IGROV LC50, IGROV) was 80.4 nM and the “IGROV TGI” value (IGROV-1; IGROV) was 1.63E-08. For the same molecule, the GI50 (IGROV-ET; Homo sapiens, 48 h, IGROV-ET, read-out: IGROV-ET GI50) was 28.4 nM, the CC50 (IGROV-ET; Homo sapiens, 48 h, read-out: IGROV-ET LC50, IGROV-ET) was 5840 nM and the “IGROV-ET TGI” value (IGROV-ET; IGROV-ET) was 7.77E-08. The GI50 (SK-OV-3; Homo sapiens, SK-OV-3, 48 h, SK-OV3, read-out: SK-OV3 GI50) was 21.6 nM, the LC50 (SK-OV-3; Homo sapiens, SK-OV-3, 48 h, read-out: SK-OV3 LC50, SK-OV3) was 8990 nM and the “SK-OV3 TGI” value (SK-OV-3; SK-OV3) was 6.56E-08. The GI50 (PANC-1; Homo sapiens, PANC-1, 48 h, PANC-1, read-out: PANC-1 GI50) was 25.3 nM, the LC50 (concentration for 50% net cell kill) (PANC-1; Homo sapiens, PANC-1, 48 h, read-out: PANC-1 LC50, PANC-1) was 876 nM and the “PANC-1 TGI” value (PANC-1; PANC-1) was 7.39E-08. The “HMEC-1 TGI” value (HMEC1; HMEC-1) was 9.65E-08, the GI50 (HMEC1; Homo sapiens, HMEC-1, 48 h, HMEC-1, read-out: HMEC-1 GI50) was 16.7 nM and the LC50 (HMEC1; Homo sapiens, HMEC-1, 48 h, read-out: HMEC-1 LC50, HMEC-1) was 12700 nM. The “Toxicity Data Liver” value (Liver) was 6.18E-08, the “Toxicity Data Heart” value (Heart) was 3.60E-08 and the “Toxicity Data Myelo” value (Myelo) was 2.44E-07. For the same molecule, the “Toxicity Data Skeletal” value (Skeletal) was 2.00E-07 and the “Toxicity Data Kidney” value (Kidney) was 8.09E-08.
